From patent publication US20190185829A1, “Preparation of lipase with improved ester synthesis activity by using surfactants” (Jiangnan University, priority 2017, published 2019)

Experiments:
Assay type in all cases: biochemical
[1] = target: T1, Candida antarctica lipase CALB (Moesziomyces antarcticus, UniProt P41365); experiment: Hydrolytic activity of surfactant-treated lipase CALB using pNPP as substrate; conditions: surfactant 10 mM, protein 0.12 mg·mL^−1
T1 construct: purchased Sigma-Aldrich Co., Ltd
From the text: (§1) (1) Determination of Hydrolytic Activity of the Lipase Using p-Nitrophenyl Palmitate (pNPP) as Substrate
(§2) Hydrolysis of pNPP catalyzed by lipase generates p-nitrophenol and palmitic acid. p-nitrophenol appears yellow in the buffer at pH 8.0 with the maximum absorption peak at 410 nm. Determination of hydrolytic activity can be achieved by measuring the absorbance at 410 nm.
(§3) The substrate solution A: 50 mmol·L^−1 sodium phosphate buffer (pH 8.0) containing 1.16 g·L^−1 sodium deoxycholate and 0.56 g·L^−1 arabic gum. Substrate solution B: 0.015 g pNPP is dissolved in 5 mL isopropyl alcohol. Substrate solution A and substrate solution B are mixed then stored for use afterwards.
(§4) Termination solution: 40 g·L^−1 NaOH, 93.05 g·L^−1 EDTA sodium. Add 62 uL termination solution to the reaction mixture when stopping the reaction.
(§5) Add 0.1 mL appropriately diluted enzyme solution, which is substituted by inactivated enzyme solution as the control, to 2.4 mL substrate solution above, incubate the mixture at 40° C. for 2 min and measure the absorbance at 410 nm.
(§6) one hydrolytic activity unit is defined as the amount of enzyme that catalyzes the formation of 1 μmol of p-nitrophenol in 1 minute at 40° C.
(§7) enzyme activity (U·mL^−1)=(V×A410×10^6)/(ε×t×V′) Calculation equation: […]
(§8) Specific activity: the activity of lipase per milligram of total protein in the lipase preparation. […]
(§9) Commercial lipase CALB was purchased from Sigma-Aldrich Co., Ltd. CALB is a non-immobilized lipase. Dissolve the CALB powder in water and centrifuge to obtain the supernatant containing the CALB lipase that would be regulated to improve the ester synthesis activity by adjusting the final protein concentration to 0.12 mg·mL^−1 and adding surfactants to the final concentration of 10 mM.
(§10) Commercial lipase CALB was purchased from Sigma-Aldrich Co., Ltd. and is a non-immobilized lipase. Dissolve the CALB powder in water, centrifuge to obtain the supernatant and treat the supernatant with different concentrations of surfactant DDM (the final protein concentration was 0.12 mg·mL^−1).

[2] = target: T1, Candida antarctica lipase CALB; experiment: Ester synthesis activity of surfactant-treated lyophilized lipase CALB by GC analysis; conditions: surfactant 10 mM, protein 0.12 mg·mL^−1
Experimental: (§11) (2) Determination of Ester Synthesis Activity of the Lipase by GC Analysis
(§12) Substrate solution A: 48.5 mL of n-octanoic acid is dissolved in 250 mL of n-heptane in a volumetric flask.
(§13) Substrate solution B: 17.5 mL of absolute ethanol is dissolved in 250 mL of n-heptane in a volumetric flask.
(§14) Internal standard: 2-hexanol/n-heptane (35 g·L^−1).
(§15) Standard sample: 10 g of n-octanoate is dissolved in 1000 mL of n-heptane in a volumetric flask.
(§16) 1 mL substrate solution A and substrate solution B are added in a 5 mL Eppendorf tube respectively, then 20 mg lipase powder (or lyophilized powder) is added. The reaction is carried out at 40° C. and with shaking at 150 rpm for 30 min. Remove the lipase powder by centrifugation or membrane filtration. Then 0.1 mL of internal standard is added in 0.4 mL of filtrate or supernatant and mixed. Measure the content of n-octanoate in the mixture above by GC analysis.
(§17) The gas chromatograph (6820, Agilent Instruments) is equipped with a AC20 (PEG20000) capillary column and a FID detector. Nitrogen was used as the carrier gas. The oven temperature was programmed to start at 90° C. for 1 min and then be elevated to 200° C. for 5 min at 10° C.·min^−1. The injector and detector temperatures were set at 250° C.
(§18) Definition of enzyme activity: One unit of ester synthesis activity is defined as the amount of enzyme that esterifies 1 micromole of n-octanoate per min.
(§19) Specific activity: the activity of lipase per milligram of total protein in the lipase preparation.
(§20) Total recovery: the percentage of the activity after a treatment to that before the treatment
(§21) Add an equal volume of high-concentration surfactant solution into the enzyme solution. The final protein concentration was […] and the surfactant concentration was 10 mM. After mixed thoroughly, the mixture was lyophilized and kept in dry condition.
as §9, §10

[3] = target: T2, Pseudomonas cepacia lipase PCL (Burkholderia cepacia, UniProt P22088); experiment: Hydrolytic activity of surfactant-treated lipase PCL using pNPP as substrate; conditions: surfactant 10 mM, protein 0.2 mg·mL^−1
T2 construct: purchased Sigma-Aldrich Co., Ltd
From the text: as §1, §2, §3, §4, §5, §6, §7, §8
as §9, with “PCL” for “CALB”, “0.2” for “0.12”
(§22) Commercial lipase PCL was purchased from Sigma-Aldrich Co., Ltd. and is a non-immobilized lipase. Dissolve the PCL powder in water, centrifuge to obtain the supernatant and treat the supernatant with different concentrations of surfactant DDM (the final protein concentration was 0.2 mg·mL^−1).

[4] = test system: Rhizopus chinensis lipase r27RCL; experiment: Hydrolytic activity of surfactant-treated lipase r27RCL using pNPP as substrate; conditions: protein 0.2 mg·mL^−1
From the text: as §1, §2, §3, §4, §5, §6, §7, §8
(§23) Commercial lipase r27RCL was purchased from Jiangsu Yiming Biological Technology Co., Ltd, which has high hydrolytic activity and low ester synthesis activity. Dissolve the r27RCL powder in water and centrifuge to obtain the supernatant containing the r27RCL lipase to adjust the ester synthesis activity (the final protein concentration was 0.2 mg·mL^−1 and the final concentration of surfactant was 10 mM, which is between 0.1×CMC^˜200×CMC of the different surfactants in Table 1).
(§24) Commercial lipase r27RCL was purchased from Jiangsu Yiming Biological Technology Co., Ltd. r27RCL is a lipase with high hydrolytic activity but low ester synthesis activity. Dissolve the r27RCL powder in water, centrifuge to obtain the supernatant and treat the supernatant with different concentrations of surfactant LPC14 (the final protein concentration was 0.2 mg·mL^−1).

[5] = test system: Rhizopus chinensis lipase r27RCL; experiment: Ester synthesis activity of surfactant-treated lyophilized lipase r27RCL by GC analysis; conditions: protein 0.2 mg·mL^−1
Experimental: as §11, §12, §13, §14, §15, §16, §17, §18, §19, §20, §21, §23, §24

[6] = target: T3, Rhizoupus oryzae lipase ROL (Rhizopus oryzae, UniProt P61872); experiment: Hydrolytic activity of surfactant-treated lipase ROL using pNPP as substrate; conditions: protein 0.2 mg·mL^−1
T3 construct: purchased Sigma-Aldrich Co., Ltd
From the text: as §1, §2, §3, §4, §5, §6, §7, §8
as §9, with “lipase ROL” for “lipase CALB”, “Ltd. ROL” for “Ltd. CALB”, “the ROL” for “the CALB”, “improve its” for “improve the”, “to 0.2” for “to 0.12”
(§25) Commercial lipase ROL was purchased from Sigma-Aldrich Co., Ltd. and is a non-immobilized lipase. Dissolve the ROL powder in water, centrifuge to obtain the supernatant and treat the supernatant with different concentrations of surfactant LPC14 (the final protein concentration was 0.2 mg·mL^−1).

[7] = target: T3, Rhizoupus oryzae lipase ROL; experiment: Ester synthesis activity of surfactant-treated lyophilized lipase ROL by GC analysis; conditions: protein 0.2 mg·mL^−1
Experimental: as §11, §12, §13, §14, §15, §16, §17, §18, §19, §20, §21
as §9, with “lipase ROL” for “lipase CALB”, “Ltd. ROL” for “Ltd. CALB”, “the ROL” for “the CALB”, “improve its” for “improve the”, “to 0.2” for “to 0.12”
as §25

[8] = target: T2, Pseudomonas cepacia lipase PCL; experiment: Ester synthesis activity of surfactant-treated lyophilized lipase PCL by GC analysis; conditions: surfactant 10 mM, protein 0.2 mg·mL^−1
Experimental: as §11, §12, §13, §14, §15, §16, §17, §18, §19, §20, §21
as §9, with “PCL” for “CALB”, “0.2” for “0.12”
as §22

[9] = surfactant concentration 0.1 x CMC
[10] = surfactant concentration 1 x CMC
[11] = surfactant concentration 10 x CMC
[12] = surfactant concentration 100 x CMC

T1 sequence (P41365 26-342): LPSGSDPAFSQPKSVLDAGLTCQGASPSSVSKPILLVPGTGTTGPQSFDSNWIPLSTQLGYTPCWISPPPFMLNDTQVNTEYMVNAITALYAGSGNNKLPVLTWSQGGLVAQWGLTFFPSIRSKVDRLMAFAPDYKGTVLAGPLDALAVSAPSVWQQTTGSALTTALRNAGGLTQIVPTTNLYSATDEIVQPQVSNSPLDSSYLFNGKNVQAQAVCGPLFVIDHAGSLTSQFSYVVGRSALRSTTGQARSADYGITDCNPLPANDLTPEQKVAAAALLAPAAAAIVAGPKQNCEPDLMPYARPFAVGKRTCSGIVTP
T2 sequence (P22088 45-364): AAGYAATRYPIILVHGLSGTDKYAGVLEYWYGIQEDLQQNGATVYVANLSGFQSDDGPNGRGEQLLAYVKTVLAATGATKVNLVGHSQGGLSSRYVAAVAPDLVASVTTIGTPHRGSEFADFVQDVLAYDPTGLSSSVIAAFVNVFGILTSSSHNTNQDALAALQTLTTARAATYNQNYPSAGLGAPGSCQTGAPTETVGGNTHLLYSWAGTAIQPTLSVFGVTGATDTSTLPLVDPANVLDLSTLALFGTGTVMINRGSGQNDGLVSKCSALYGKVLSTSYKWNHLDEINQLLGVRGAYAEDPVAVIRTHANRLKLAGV
T3 sequence (P61872 96-392): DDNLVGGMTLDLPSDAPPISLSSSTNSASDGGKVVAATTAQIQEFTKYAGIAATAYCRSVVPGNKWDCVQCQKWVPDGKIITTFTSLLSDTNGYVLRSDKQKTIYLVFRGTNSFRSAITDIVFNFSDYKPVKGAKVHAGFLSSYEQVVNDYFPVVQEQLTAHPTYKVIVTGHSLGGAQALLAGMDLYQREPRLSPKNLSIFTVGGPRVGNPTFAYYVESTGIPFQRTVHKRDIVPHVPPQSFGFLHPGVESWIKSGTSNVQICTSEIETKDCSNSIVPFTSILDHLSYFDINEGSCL

With `CCCCCCCCCCCCCC(=O)OCC(O)COP(=O)([O-])OCC[N+](C)(C)C` (stereo not drawn) [LPC14, 1-myristyl 2-acyl-cis-propyltri-phosphatidylcholine] the “Hydrolytic activity, Specific activity” value [1] was 0.54 U · mg^−1, the “Hydrolytic activity, Total recovery” value [1] was 38% and the “Ester synthesis activity, Specific activity” value [2] was 36.8 U · mg^−1. For the same compound, the “Hydrolytic activity, Specific activity” value [3] was 321.8 U · mg^−1, the “Hydrolytic activity, Total recovery” value [3] was 119% and the “Hydrolytic activity, Total recovery” value ([4]; surfactant 10 mM) was 97%. For the same compound, the “Hydrolytic activity, Specific activity” value [4, 9] was 120.2 U · mg^−1, the “Hydrolytic activity, Total recovery” value [4, 9] was 101% and the “Hydrolytic activity, Specific activity” value [4, 10] was 122.2 U · mg^−1. The “Hydrolytic activity, Total recovery” value [4, 10] was 102%, the “Hydrolytic activity, Specific activity” value [4, 11] was 128.0 U · mg^−1 and the “Hydrolytic activity, Total recovery” value [4, 11] was 107%. For the same compound, the “Hydrolytic activity, Specific activity” value [4, 12] was 125.7 U · mg^−1, the “Hydrolytic activity, Total recovery” value [4, 12] was 102% and the “Ester synthesis activity, Specific activity” value ([5]; surfactant 10 mM) was 47.6 U · mg^−1. The “Ester synthesis activity, Specific activity” value [5, 9] was 1.8 U · mg^−1, the “Ester synthesis activity, Total recovery” value [5, 9] was 32% and the “Ester synthesis activity, Specific activity” value [5, 10] was 1.4 U · mg^−1. The “Ester synthesis activity, Total recovery” value [5, 10] was 25%, the “Ester synthesis activity, Specific activity” value [5, 12] was 17.1 U · mg^−1 and the “Ester synthesis activity, Total recovery” value [5, 12] was 292%. For the same compound, the “Hydrolytic activity, Specific activity” value ([6]; surfactant 10 mM) was 33.1 U · mg^−1, the “Hydrolytic activity, Total recovery” value ([6]; surfactant 10 mM) was 106% and the “Hydrolytic activity, Specific activity” value [6, 9] was 28.7 U · mg^−1. For the same compound, the “Hydrolytic activity, Total recovery” value [6, 9] was 150%, the “Hydrolytic activity, Specific activity” value [6, 10] was 27.7 U · mg^−1 and the “Hydrolytic activity, Total recovery” value [6, 10] was 139%. The “Hydrolytic activity, Specific activity” value [6, 11] was 31.2 U · mg^−1, the “Hydrolytic activity, Total recovery” value [6, 11] was 162% and the “Hydrolytic activity, Specific activity” value [6, 12] was 39.0 U · mg^−1. The “Hydrolytic activity, Total recovery” value [6, 12] was 206%, the “Ester synthesis activity, Specific activity” value ([7]; surfactant 10 mM) was 12.2 U · mg^−1 and the “Ester synthesis activity, Specific activity” value [7, 9] was 0.4 U · mg^−1. For the same compound, the “Ester synthesis activity, Total recovery” value [7, 9] was 97%, the “Ester synthesis activity, Specific activity” value [7, 10] was 0.2 U · mg^−1 and the “Ester synthesis activity, Total recovery” value [7, 10] was 46%. For the same compound, the “Ester synthesis activity, Specific activity” value [7, 11] was 1.0 U · mg^−1, the “Ester synthesis activity, Total recovery” value [7, 11] was 240% and the “Ester synthesis activity, Specific activity” value [7, 12] was 6.2 U · mg^−1. The “Ester synthesis activity, Specific activity” value [8] was 44.6 U · mg^−1.
